The results in this text go back to US20190381180A1, “HYBRID CARRIERS FOR NUCLEIC ACID CARGO” (CureVac AG, priority 2016, published 2019).

The subject of experiment [1] is HepG2 cells (human liver carcinoma cell line). Description: Transfection efficiency on HepG2 cells in vitro (GpLuc luminescence in supernatant). Particulars: GpLuc mRNA, 24 h (FIG. 2A). The experiment is classed as cell-based. Here is the method:
This example describes the evaluation of the effect of different polymer-lipid formulations on transfection efficiency on HepG2 cells (human liver carcinoma cell line). As a read-out for transfection efficiency, GpLuc mRNA (SEQ ID NO:14) was used as a cargo.
Successful transfection with the cargo leads to the translation of the luciferase protein and to a secretion of Gp luciferase protein into the cell culture supernatant.
A volume of 0.2 mL HepG2 cells (10.000 cells) were seeded in a 96 well tissue culture plate. After removing the medium from each well, 100 μL RPMI 1640 medium (with 1% Penicillin and 1% Streptomycin, 1% L-Glutamin) was added to each well. Afterwards, HepG2 cells were transfected with 100 μL transfection mix (in triplicates) of polymer-lipid mRNA complexes (prepared according to Example 3) and respective controls (in triplicates), and cells were incubated at 37° C. and 5% CO2 for 90 minutes. […] Twenty-four hours post transfection, 10 μL of supernatant of each well was extracted and used for further luminescence analysis (see below).
A volume of 10 μL supernatant was transferred to a 96 well plate for GpLuc measurement. […] A volume of 100 μL coelenterazine working solution was used as a substrate for GpLuc and measured after 5 seconds in a commercially available microplate reader.

The subject of experiment [2] is Sol8 cells. Description: Transfection of Sol8 muscle cells in vitro. The experiment is classed as cell-based, Mus musculus. The settings on record: very small amount of lipid, in combination with low- and high-charge ratio complexes. Here is the method: A volume of 10 μL supernatant was transferred to a 96 well plate for GpLuc measurement. Then, coelenterazine working solution (100 μM) was prepared (1 mL coelenterazine stock solution (4.72 mM in EtOH) in 49 mL phosphate buffered saline supplemented with 5 mM NaCl, pH 7.2). A volume of 100 μL coelenterazine working solution was used as a substrate for GpLuc and measured after 5 seconds in a commercially available microplate reader.
As a read-out for transfection efficiency, […] mRNA (SEQ ID:NO 15) was used as a cargo. A successful transfection with the cargo leads to the translation of the luciferase protein and to a secretion of Gp luciferase protein into the cell culture supernatant.
For a subset on hydrogel, a volume of 0.2 mL Sol8 cells (20.000 cells) were seeded in 96 well glass bottom plates (Softwell Hydrogel coated with collagen (elasticity E=12 kPa)). For another subset without hydrogel, a volume of 0.2 mL with 10.000 Sol8 cells per well were seeded in a 96 well glass bottom plates.
After removing the medium from each well, 100 μL DMEM medium (with 2% horse serum) was added to each well. […] Twenty-four hours post transfection, 10 μL of supernatant of each well was extracted and used for further luminescence analysis, which was performed as described in Example 5.

On to `CCCCC/C=C\C/C=C\CCCCCCCCC1(CCCCCCCC/C=C\C/C=C\CCCCC)OCC(CCN(C)C)O1` (stereo not drawn) [KC2, 2,2-dilinoleyl-4-(2-dimethylaminoethyl)[1,3]-dioxolane], for which, in experiment [1] (combination with polymer PB83, high-charge complexes (N/P 4), 1 and 2 nmol/μg RNA lipid), the “transfection efficiency compared to PB83 polymer alone” value is “this effect was observable”. `CCCCC/C=C\C/C=C\CCCCCCCCC(CCCCCCCC/C=C\C/C=C\CCCCC)OC(=O)CCCN(C)C` [MC3, (6Z,9Z,28Z,31Z)-heptatriaconta-6,9,28,31-tetraen-19-yl-4-(dimethylamino)butanoate]: the “transfection efficiency compared to PB83 polymer alone” value in experiment [1] (combination with polymer PB83, low charge complexes (N/P 0.7), 0.4 and 1 nmol/μg RNA lipid) was “increase in transfection efficiency”. As to `CCCCCCCC/C=C\CCCCCCCC(=O)OCC(C[N+](C)(C)C)OC(=O)CCCCCCC/C=C\CCCCCCCC.[Cl-]` (stereo not drawn) [N-[1-(2,3-dioleoyloxy)propyl]-N,N,N-trimethylammonium chloride], the “increase of expression levels in Sol8 cells” value in experiment [2] is “effective”.
